Results as given in patent publication US20260285850A1, “SUBSTITUTED OXAZOLIDINONES AND IMIDAZOLINONES AS HERBICIDES” (FMC CORPORATION, priority 2023, published 2026).

Legend:
Type in all cases: in vivo
[1] = test system: ducksalad (Heteranthera limosa); test: Test B flooded paddy test, visual plant response rating 0-100; details: 250 g ai/ha, Flood, applied to paddy water, evaluated after 13 days
Description: (§1) Plant species in the flooded paddy test selected from barnyardgrass (Echinochloa crusgalli), ducksalad (Heteranthera limosa), rice (Oryza sativa), and sedge, umbrella (small-flower umbrella sedge, Cyperus difformis) were grown to the 2-leaf stage for testing. At time of treatment, test pots were flooded to 3 cm above the soil surface, treated by application of test compounds directly to the paddy water, and then maintained at that water depth for the duration of the test. Treated plants and controls were maintained in a greenhouse for 13 days, after which time all species were compared to controls and visually evaluated. […] A dash (-) response means no test result.

[2] = test system: sedge, umbrella (small-flower umbrella sedge, Cyperus difformis); test: as above; details: 250 g ai/ha, Flood, applied to paddy water, evaluated after 13 days
Description: as §1

[3] = test system: barnyardgrass (Echinochloa crusgalli); test: as above; details: 250 g ai/ha, Flood, applied to paddy water, evaluated after 13 days
Description: as §1

rice (Oryza sativa) = test: as above; details: 250 g ai/ha, Flood, applied to paddy water, evaluated after 13 days
Description: as §1

[4] = test system: ryegrass, Italian (italian ryegrass, Lolium multiflorum); test: Test A postemergence application, visual injury rating 0-100; details: 10 days
Description: (§2) Seeds of plant species selected from barnyardgrass (Echinochloa crus-galli), blackgrass (Alopecurus myosuroides), corn (Zea mays), foxtail, giant (giant foxtail, Setaria faberi), green foxtail (Setaria viridis), goosegrass (Eleusine indica), kochia (Bassia scoparia), oat, wild (wild oat, Avena fatua), palmer (palmer amaranth, palmer pigweed, Amaranthus palmeri), ragweed (common ragweed, Ambrosia artemisiifolia), ryegrass, Italian (italian ryegrass, Lolium multiflorum), soybean (Glycine max) and wheat (Triticum aestivum) were planted into a blend of loam soil and sand and treated preemergence with a directed soil spray using test chemicals formulated in a non-phytotoxic solvent mixture which included a surfactant.
(§3) At the same time, plants selected from these crops and weed species and also galium (catchweed bedstraw, Galium aparine) and horseweed (Erigeron canadensis) were planted in pots containing the same blend of loam soil and sand and treated with postemergence applications of test chemicals formulated in the same manner. Plants ranged in height from 2 to 10 cm and were in the one- to two-leaf stage for the postemergence treatment. Treated plants and untreated controls were maintained in a greenhouse for 10 days, after which time all treated plants were compared to untreated controls and visually evaluated for injury. Plant response ratings, summarized in Table A, are based on a 0 to 100 scale where 0 is no effect and 100 is complete control. A dash (-) response means no test result.

[5] = test system: barnyardgrass (Echinochloa crus-galli); test: as above; details: 10 days
Description: as §2, §3

[6] = test system: green foxtail (Setaria viridis); test: as above; details: 10 days
Description: as §2, §3

[7] = test system: horseweed (Erigeron canadensis); test: as above; details: 10 days
Description: as §2, §3

soybean (Glycine max) [8] = test: as above; details: 10 days
Description: as §2, §3

kochia (Bassia scoparia) [9] = test: as above; details: 10 days
Description: as §2, §3

[10] = test system: ragweed (common ragweed, Ambrosia artemisiifolia); test: as above; details: 10 days
Description: as §2, §3

[11] = test system: oat, wild (wild oat, Avena fatua); test: as above; details: 10 days
Description: as §2, §3

[12] = test system: wheat (Triticum aestivum); test: as above; details: 10 days
Description: as §2, §3

[13] = test system: palmer (palmer amaranth, palmer pigweed, Amaranthus palmeri); test: as above; details: 10 days
Description: as §2, §3

[14] = test system: blackgrass (Alopecurus myosuroides); test: as above; details: 10 days
Description: as §2, §3

corn (Zea mays) [15] = test: as above; details: 10 days
Description: as §2, §3

[16] = test system: ryegrass, Italian (italian ryegrass, Lolium multiflorum); test: Test A preemergence soil spray, visual injury rating 0-100; details: 10 days, 0 = no effect, 100 = complete control
Description: as §2, §3

[17] = test system: barnyardgrass (Echinochloa crus-galli); test: as above; details: 10 days, 0 = no effect, 100 = complete control
Description: as §2, §3

[18] = test system: green foxtail (Setaria viridis); test: as above; details: 10 days, 0 = no effect, 100 = complete control
Description: as §2, §3

soybean (Glycine max) [19] = test: as above; details: 10 days, 0 = no effect, 100 = complete control
Description: as §2, §3

kochia (Bassia scoparia) [20] = test: as above; details: 10 days, 0 = no effect, 100 = complete control
Description: as §2, §3

[21] = test system: ragweed (common ragweed, Ambrosia artemisiifolia); test: as above; details: 10 days, 0 = no effect, 100 = complete control
Description: as §2, §3

[22] = test system: oat, wild (wild oat, Avena fatua); test: as above; details: 10 days, 0 = no effect, 100 = complete control
Description: as §2, §3

[23] = test system: wheat (Triticum aestivum); test: as above; details: 10 days, 0 = no effect, 100 = complete control
Description: as §2, §3

[24] = test system: palmer (palmer amaranth, palmer pigweed, Amaranthus palmeri); test: as above; details: 10 days, 0 = no effect, 100 = complete control
Description: as §2, §3

[25] = test system: blackgrass (Alopecurus myosuroides); test: as above; details: 10 days, 0 = no effect, 100 = complete control
Description: as §2, §3

corn (Zea mays) [26] = test: as above; details: 10 days, 0 = no effect, 100 = complete control
Description: as §2, §3

[27] = 31 g ai/ha, postemergence, 0 = no effect, 100 = complete control
[28] = Postemergence, 125 g ai/ha, 0 is no effect, 100 is complete control

Which results are given for CNC(=O)C1CC(NC(=O)C2(C)CN(c3cc(F)cc(F)c3)C(=O)O2)CO1 (centres unmarked) [Compound 8]?
Plant response rating, Ducksalad (0 to 100 scale, 0 is no effect and 100 is complete control) [1]: 0; Plant response rating, Sedge, Umbrella (0 to 100 scale, 0 is no effect and 100 is complete control) [2]: 0; Plant response rating, Barnyardgrass (0 to 100 scale, 0 is no effect and 100 is complete control) [3]: 0; Plant response rating, Rice (0 to 100 scale, 0 is no effect and 100 is complete control) (rice (Oryza sativa)): 0; Ryegrass, Italian plant response rating (0-100) [4, 27]: 0; Ryegrass, Italian plant response rating (0 to 100 scale) [4, 28]: 0; Barnyardgrass plant response rating (0-100) [5, 27]: 0; Barnyardgrass plant response rating (0 to 100 scale) [5, 28]: 0; Foxtail, Green plant response rating (0-100) [6, 27]: 0; Foxtail, Green plant response rating (0 to 100 scale) [6, 28]: 0; Horseweed plant response rating (0-100) [7, 27]: 30; Horseweed plant response rating (0 to 100 scale) [7, 28]: 10; Soybean plant response rating (0-100) (soybean (Glycine max) [8]; [27]): 0; Soybean plant response rating (0 to 100 scale) (soybean (Glycine max) [8]; [28]): 0; Kochia plant response rating (0-100) (kochia (Bassia scoparia) [9]; [27]): 0; Kochia plant response rating (0 to 100 scale) (kochia (Bassia scoparia) [9]; [28]): 20; Ragweed plant response rating (0-100) [10, 27]: 0; Ragweed plant response rating (0 to 100 scale) [10, 28]: 0; Oat, Wild plant response rating (0-100) [11, 27]: 0; Oat, Wild plant response rating (0 to 100 scale) [11, 28]: 0; Wheat plant response rating (0-100) [12, 27]: 0; Wheat plant response rating (0 to 100 scale) [12, 28]: 20; Amaranth, Palmer plant response rating (0-100) [13, 27]: 0; Amaranth, Palmer / Pigweed, Palmer plant response rating (0 to 100 scale) [13, 28]: 0; Blackgrass plant response rating (0-100) [14, 27]: 0; Blackgrass plant response rating (0 to 100 scale) [14, 28]: 90; Corn plant response rating (0-100) (corn (Zea mays) [15]; [27]): 0; Corn plant response rating (0 to 100 scale) (corn (Zea mays) [15]; [28]): 0; Ryegrass, Italian plant response rating (0-100) ([16]; 31 g ai/ha): 0; Ryegrass, Italian plant response rating (0 to 100 scale) ([16]; 125 g ai/ha): 60; Barnyardgrass plant response rating (0-100) ([17]; 31 g ai/ha): 0; Barnyardgrass plant response rating (0 to 100 scale) ([17]; 125 g ai/ha): 10; Foxtail, Green plant response rating (0-100) ([18]; 31 g ai/ha): 0; Foxtail, Green plant response rating (0 to 100 scale) ([18]; 125 g ai/ha): 40; Soybean plant response rating (0-100) (soybean (Glycine max) [19]; 31 g ai/ha): 0; Soybean plant response rating (0 to 100 scale) (soybean (Glycine max) [19]; 125 g ai/ha): 0; Kochia plant response rating (0-100) (kochia (Bassia scoparia) [20]; 31 g ai/ha): 0; Kochia plant response rating (0 to 100 scale) (kochia (Bassia scoparia) [20]; 125 g ai/ha): 70; Ragweed plant response rating (0-100) ([21]; 31 g ai/ha): 60; Ragweed plant response rating (0 to 100 scale) ([21]; 125 g ai/ha): 0; Oat, Wild plant response rating (0-100) ([22]; 31 g ai/ha): 0; Oat, Wild plant response rating (0 to 100 scale) ([22]; 125 g ai/ha): 20; Wheat plant response rating (0-100) ([23]; 31 g ai/ha): 0; Wheat plant response rating (0 to 100 scale) ([23]; 125 g ai/ha): 80; Amaranth, Palmer plant response rating (0-100) ([24]; 31 g ai/ha): 0; Amaranth, Palmer plant response rating (0 to 100 scale) ([24]; 125 g ai/ha): 0; Blackgrass plant response rating (0-100) ([25]; 31 g ai/ha): 0; Blackgrass plant response rating (0 to 100 scale) ([25]; 125 g ai/ha): 50; Corn plant response rating (0-100) (corn (Zea mays) [26]; 31 g ai/ha): 0; Corn plant response rating (0 to 100 scale) (corn (Zea mays) [26]; 125 g ai/ha): 0
